Counter-ions that a name gives are not always drawn.
Test system: inflammatory pain
Assay: Randall-Selitto test in rats (carrageenan-induced acute inflammation, mechanical nociceptive threshold)
Format: in vivo
Settings: rat; for time point of peak effect: substance applied alone, A i.v., paracetamol i.p.
Protocol: The weight ratios of the components (a) and (b) that will lead to a supra-additive effect (synergistic effect) of the inventive pharmaceutical composition may be determined via the test of Randall and Selitto as described in Arch. Int. Pharmacodyn., 1957, 111: 409 to 419, which is a model for inflammatory pain. The respective part of the literature is hereby incorporated by reference and forms part of the present disclosure.
Acute inflammation is induced by an intraplantar injection of 0.1 ml of a carrageenan solution (0.5% in distilled water) into one hind paw. The mechanical nociceptive threshold is measured 4 hours after carrageenan injection using an Algesiometer (Ugo Basile, Italy). The device generates a mechanical force with a linear increase over time. The force is applied to the dorsal surface of the inflamed rat hind paw via a cone-shaped stylus with a rounded tip (2 mm tip diameter). The nociceptive threshold is defined as the force (in grams) at which the rat vocalises (cut-off force 250 g). […] The antinociceptive and antihyperalgesic activity of the tested substance is expressed as percentages of the maximal possible effect (% MPE). The group size is n=10.
The interactions studies presented herein were performed using equieffective doses of the two components, calculated from the ratio of the respective ED50 values of the components if administered alone.
Thus, the time point of ED50 calculation of the combination corresponds to the timepoint of the peak effect of the respective compound.

Compound | ED50 (iv, 0.25 h, i.v., 15 min p. appl. (peak effect), % MPE, n=10, read-out: ED50 of A applied alone) | time point of peak effect
COc1cccc([C@@]2(O)C[C@H](O)CC[C@@H]2CN(C)C)c1 (racemic) [A, (1RS,3RS,6RS)-6-dimethylaminomethyl-1-(3-methoxy-phenyl)-cyclohexane-1,3-diol hydrochloride] | 15.8 mg/kg | 15 min
CC(=O)Nc1ccc(O)cc1 [Paracetamol] |  | 120 min
